{"source": "patent US11090319B2", "about": "“Therapeutic uses of pharmaceutical compositions comprising cyclic boronic acid ester derivatives” (Melinta Subsidiary Corp., priority 2010, dated 2021)", "key": {"[1]": {"system": "EC1008 Escherichia coli CTX-M-3", "test": "Checkerboard assay, ceftazidime potentiation", "conditions": "ceftazidime MIC 8-fold; EC1008 CTX-M-3 class A"}, "[2]": {"system": "ECL1004 Enterobacter cloacae NMC-A", "test": "Checkerboard assay, biapenem potentiation", "conditions": "Biapenem MIC 8-fold; ECL1004 NMC-A class A"}, "[3]": {"system": "ec303 Escherichia coli TEM-12", "test": "Checkerboard assay, ceftazidime potentiation", "conditions": "ceftazidime MIC 8-fold; ec303 TEM-12 class A"}, "[4]": {"system": "KP1012 Klebsiella pneumoniae SHV-18", "test": "Checkerboard assay, ceftazidime potentiation", "conditions": "ceftazidime MIC 8-fold; KP1012 SHV-18 class A"}, "[5]": {"system": "ECL1003 Enterobacter cloacae Hyper AmpC expression", "test": "Checkerboard assay, ceftazidime potentiation", "conditions": "ceftazidime MIC 8-fold; ECL1003 Hyper AmpC class C"}, "[6]": {"system": "EC1012 Escherichia coli TEM-12", "test": "Checkerboard assay, ceftazidime potentiation", "conditions": "ceftazidime MIC 8-fold; EC1012 TEM-12 class A"}, "[7]": {"system": "KP1009 Klebsiella pneumoniae CTX-M-15", "test": "Checkerboard assay, ceftazidime potentiation", "conditions": "ceftazidime MIC 8-fold; KP1009 CTX-M-15 class A"}, "[8]": {"system": "KP1004 Klebsiella pneumoniae KPC-2", "test": "Checkerboard assay, ceftazidime potentiation", "conditions": "ceftazidime MIC 8-fold; KP1004 KPC-2 class A"}, "[9]": {"system": "EC1004 Escherichia coli CMY-2", "test": "Checkerboard assay, ceftazidime potentiation", "conditions": "ceftazidime MIC 8-fold; EC1004 CMY-2 class C"}, "[10]": {"system": "EC1007 Escherichia coli KPC-3", "test": "Checkerboard assay, ceftazidime potentiation", "conditions": "ceftazidime MIC 8-fold; EC1007 KPC-3 class A"}, "[11]": {"system": "EC1007 Escherichia coli KPC-3", "test": "Checkerboard assay, biapenem potentiation", "conditions": "Biapenem MIC 8-fold; EC1007 KPC-3 class A"}, "[12]": {"system": "EC1006 Escherichia coli FOX-5", "test": "Checkerboard assay, ceftazidime potentiation", "conditions": "ceftazidime MIC 8-fold; EC1006 FOX-5 class C"}, "[13]": {"system": "SM1000 Serratia marcescens SME-2", "test": "Checkerboard assay, biapenem potentiation", "conditions": "Biapenem MIC 8-fold; SM1000 SME-2 class A"}, "[14]": {"system": "EC1014 Escherichia coli DHA-1", "test": "Checkerboard assay, ceftazidime potentiation", "conditions": "ceftazidime MIC 8-fold; EC1014 DHA-1 class C"}, "[15]": {"system": "KP1010 Klebsiella pneumoniae SHV-12", "test": "Checkerboard assay, ceftazidime potentiation", "conditions": "ceftazidime MIC 8-fold; KP1010 SHV-12 class A"}, "[16]": {"system": "KP1007 Klebsiella pneumoniae OXA-10, qnrB4", "test": "Checkerboard assay, ceftazidime potentiation", "conditions": "ceftazidime MIC 8-fold; KP1007 OXA-10, qnrB4 class D"}, "[17]": {"system": "ec301 Escherichia coli TEM-6", "test": "Checkerboard assay, ceftazidime potentiation", "conditions": "ceftazidime MIC 8-fold; ec301 TEM-6 class A"}, "[18]": {"system": "EC1009 Escherichia coli TEM-10", "test": "Checkerboard assay, ceftazidime potentiation", "conditions": "ceftazidime MIC 8-fold; EC1009 TEM-10 class A"}, "[19]": {"system": "EC1016 Escherichia coli FOX-5", "test": "Checkerboard assay, ceftazidime potentiation", "conditions": "ceftazidime MIC 8-fold; EC1016 FOX-5 class C"}, "[20]": {"system": "KP1005 Klebsiella pneumoniae CTX-M-14", "test": "Checkerboard assay, ceftazidime potentiation", "conditions": "ceftazidime MIC 8-fold; KP1005 CTX-M-14 class A"}, "[21]": {"system": "ec307 Escherichia coli SHV-4", "test": "Checkerboard assay, ceftazidime potentiation", "conditions": "ceftazidime MIC 8-fold; ec307 SHV-4 class A"}, "[22]": {"system": "CF1000 Citrobacter freundii Hyper AmpC expression", "test": "Checkerboard assay, ceftazidime potentiation", "conditions": "ceftazidime MIC 8-fold; CF1000 Hyper AmpC class C"}, "[23]": {"system": "ec304 Escherichia coli TEM-26", "test": "Checkerboard assay, ceftazidime potentiation", "conditions": "ceftazidime MIC 8-fold; ec304 TEM-26 class A"}, "[24]": {"system": "KP1008 Klebsiella pneumoniae KPC-2", "test": "Checkerboard assay, ceftazidime potentiation", "conditions": "ceftazidime MIC 8-fold; KP1008 KPC-2 class A"}, "[25]": {"system": "EC1011 Escherichia coli TEM-26", "test": "Checkerboard assay, ceftazidime potentiation", "conditions": "ceftazidime MIC 8-fold; EC1011 TEM-26 class A"}, "[26]": {"system": "ec300 Escherichia coli TEM-3", "test": "Checkerboard assay, ceftazidime potentiation", "conditions": "ceftazidime MIC 8-fold; ec300 TEM-3 class A"}, "[27]": {"system": "ec306 Escherichia coli SHV-2", "test": "Checkerboard assay, ceftazidime potentiation", "conditions": "ceftazidime MIC 8-fold; ec306 SHV-2 class A"}, "[28]": {"system": "EC1010 Escherichia coli CMY-6", "test": "Checkerboard assay, ceftazidime potentiation", "conditions": "ceftazidime MIC 8-fold; EC1010 CMY-6 class C"}, "[29]": {"system": "ec308 Escherichia coli SHV-5", "test": "Checkerboard assay, ceftazidime potentiation", "conditions": "ceftazidime MIC 8-fold; ec308 SHV-5 class A"}, "[30]": {"system": "ec302 Escherichia coli TEM-10", "test": "Checkerboard assay, ceftazidime potentiation", "conditions": "ceftazidime MIC 8-fold; ec302 TEM-10 class A"}, "[31]": {"system": "ec310 Escherichia coli ACT-1", "test": "Checkerboard assay, ceftazidime potentiation", "conditions": "ceftazidime MIC 8-fold; ec310 ACT-1 class C"}, "ECL1002": {"system": "ECL1002", "test": "Tigemonam potentiation assay (MPC@4), class C and D", "type": "cell-based, Enterobacter cloacae", "protocol": "(§1) Selected β-lactamase inhibitors were also tested for their ability to potentiate the monobactam tigemonam."}, "EC1010 CMY-6": {"system": "EC1010 CMY-6", "test": "Tigemonam potentiation assay (MPC@4), class C and D", "type": "cell-based, Escherichia coli", "conditions": "EC1010 CMY-6 class C", "protocol": "as §1"}, "PAM2035": {"system": "PAM2035", "test": "Tigemonam potentiation assay (MPC@4), class C and D", "type": "cell-based, Pseudomonas aeruginosa", "protocol": "as §1"}, "KPX1001 OXA-2": {"system": "KPX1001 OXA-2", "type": "cell-based", "protocol": "as §1"}, "KP1007 OXA-10": {"system": "KP1007 OXA-10", "type": "cell-based, Klebsiella pneumoniae", "protocol": "as §1"}}}
{"smiles": "O=C(O)CC1CC[C@H](NC(=O)Cc2cccs2)B(O)O1", "note": "(stereo partly drawn) [Compound 1, 2-((3R)-2-hydroxy-3-(2-(thiophen-2-yl)acetamido)-1,2-oxaborinan-6-yl)acetic acid]", "values": [{"measurement": "MPC8", "setting": "[1]", "value": "X (MPC8 of 2.5 μg/mL or less)"}, {"measurement": "MPC8", "setting": "[2]", "value": "Y (MPC8 of 0.16 μg/mL to 1 μg/mL)"}, {"measurement": "MPC8", "setting": "[3]", "value": "Y (MPC8 of greater than 2.5 μg/mL to 10 μg/mL)"}, {"measurement": "MPC8", "setting": "[4]", "value": "Y (MPC8 of greater than 2.5 μg/mL to 10 μg/mL)"}, {"measurement": "MPC8", "setting": "[5]", "value": "Z (MPC8 of greater than 10 μg/mL)"}, {"measurement": "MPC8", "setting": "[6]", "value": "Y (MPC8 of greater than 2.5 μg/mL to 10 μg/mL)"}, {"measurement": "MPC8", "setting": "[7]", "value": "Y (MPC8 of greater than 2.5 μg/mL to 10 μg/mL)"}, {"measurement": "MPC8", "setting": "[8]", "value": "X (MPC8 of 2.5 μg/mL or less)"}, {"measurement": "MPC8", "setting": "[9]", "value": "X (MPC8 of 2.5 μg/mL or less)"}, {"measurement": "MPC8", "setting": "[10]", "value": "X (MPC8 of 2.5 μg/mL or less)"}, {"measurement": "MPC8", "setting": "[11]", "value": "X (MPC8 of less than 0.16 μg/mL)"}, {"measurement": "MPC8", "setting": "[12]", "value": "Y (MPC8 of greater than 2.5 μg/mL to 10 μg/mL)"}, {"measurement": "MPC8", "setting": "[13]", "value": "Y (MPC8 of 0.16 μg/mL to 1 μg/mL)"}, {"measurement": "MPC8", "setting": "[14]", "value": "Z (MPC8 of greater than 10 μg/mL)"}, {"measurement": "MPC8", "setting": "[15]", "value": "Y (MPC8 of greater than 2.5 μg/mL to 10 μg/mL)"}, {"measurement": "MPC8", "setting": "[16]", "value": "Y (MPC8 of greater than 2.5 μg/mL to 10 μg/mL)"}, {"measurement": "MPC8", "setting": "[17]", "value": "Z (MPC8 of greater than 10 μg/mL)"}, {"measurement": "MPC8", "setting": "[18]", "value": "Z (MPC8 of greater than 10 μg/mL)"}, {"measurement": "MPC8", "setting": "[19]", "value": "Z (MPC8 of greater than 10 μg/mL)"}, {"measurement": "MPC8", "setting": "[20]", "value": "Z (MPC8 of greater than 10 μg/mL)"}, {"measurement": "MPC8", "setting": "[21]", "value": "Y (MPC8 of greater than 2.5 μg/mL to 10 μg/mL)"}, {"measurement": "MPC8", "setting": "[22]", "value": "Y (MPC8 of greater than 2.5 μg/mL to 10 μg/mL)"}, {"measurement": "MPC8", "setting": "[23]", "value": "Z (MPC8 of greater than 10 μg/mL)"}, {"measurement": "MPC8", "setting": "[24]", "value": "X (MPC8 of 2.5 μg/mL or less)"}, {"measurement": "MPC8", "setting": "[25]", "value": "Z (MPC8 of greater than 10 μg/mL)"}, {"measurement": "MPC8", "setting": "[26]", "value": "Y (MPC8 of greater than 2.5 μg/mL to 10 μg/mL)"}, {"measurement": "MPC8", "setting": "[27]", "value": "Y (MPC8 of greater than 2.5 μg/mL to 10 μg/mL)"}, {"measurement": "MPC8", "setting": "[28]", "value": "Y (MPC8 of greater than 2.5 μg/mL to 10 μg/mL)"}, {"measurement": "MPC8", "setting": "[29]", "value": "Y (MPC8 of greater than 2.5 μg/mL to 10 μg/mL)"}, {"measurement": "MPC8", "setting": "[30]", "value": "Z (MPC8 of greater than 10 μg/mL)"}, {"measurement": "MPC8", "setting": "[31]", "value": "X (MPC8 of 2.5 μg/mL or less)"}]}
{"smiles": "CC1(C)[C@H](NC(=O)/C(=N\\OCC(=O)O)c2csc(N)n2)C(=O)N1OS(=O)(=O)O", "note": "[Tigemonam]", "values": [{"measurement": "Tigemonam MIC", "setting": "ECL1002", "value": 32, "unit": "µg/mL"}, {"measurement": "Tigemonam MIC", "setting": "EC1010 CMY-6", "value": 16, "unit": "µg/mL"}, {"measurement": "Tigemonam MIC", "setting": "PAM2035", "value": 8, "unit": "µg/mL"}, {"measurement": "Tigemonam MIC", "setting": "KPX1001 OXA-2", "value": 8, "unit": "µg/mL"}, {"measurement": "Tigemonam MIC", "setting": "KP1007 OXA-10", "value": 256, "unit": "µg/mL"}]}
